The target in the assay is T1, PDE4 (homogenate of guinea pig lungs or hearts).
T1 construct: gene PDE4A; native enzyme activity in lung or heart homogenate; subtype not resolved; other PDE families may be present
Put plainly: [3H]-cAMP hydrolysis, two-step radioassay, Lineweaver-Burk. In kind it is biochemical, Cavia porcellus. Conditions: cAMP substrate; 3 mM MgCl2; pH 7.4; 37°C; competitive; lung or heart homogenate.

Consider one compound from article PMC3290907 (Evidence-based Complementary and Alternative Medicine : eCAM, 2012).

Take `COc1ccc([C@@H]2CC(=O)c3c(O)cc(O)cc3O2)cc1O` [hesperetin, 5,7,3′-trihydroxy-4′-methoxyflavanone]: the Ki turned out to be 45.6 ± 2.3 µM.
